Here are results for 15 compounds from PubChem BioAssay (NCI).

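The compound was tested at five concentrations on cells cultured in 96-well plates, with a 48-hour exposure period. GI50: concentration for 50% inhibition of growth. TGI: total growth inhibition.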

Common to all, as to assay: inhibition of tumour cell growth, NCI panel, 48 h
The test system of test [1] is IGROV1 ovarian.
The subject of test [2] is SK-MEL-28 melanoma.
In test [3] the test system is NCI-H460 lung.
For test [4], the system named is HCT-15 colon.
The test system of test [5] is DU-145 prostate.
Test [6] has as its system SR leukemia.
Test [7] relates to RPMI-8226 leukemia.
Test [8] deals with SF-539 CNS.
Test [9] concerns CAKI-1 renal.
For test [10], the system named is HT29 colon.
In test [11] the test system is SK-OV-3 ovarian.
The subject of test [12] is A549 NSCLC.
Test [13] concerns 786-0 renal.
For test [14], the system named is UACC-257 melanoma.
For test [15], the system named is SN12C renal.
Test [16] concerns UACC-62 melanoma.
Test [17] deals with UO-31 renal.
For test [18], the system named is MALME-3M melanoma.

Consider `CCN(CC)CCOc1ccc(N2Cc3ccccc3C2=O)cc1`, for which the TGI in test [1], in test [2], in test [3], in [4], in [5] and in [6] was greater than 10 µM each time. Besides, the TGI in test [7], in [8], in test [9], in test [10], in test [11] and in [12] was greater than 10 µM in each case. Further, the TGI in [13], in test [14], in test [15], in test [16], in [17] and in test [18] was greater than 10 µM each time.
On to `CCCCC1C(=O)N(c2ccc(S(=O)(=O)Nc3ccccn3)cc2)N(c2ccc(O)c(C(=O)O)c2)C1=O` (configuration not stated), for which the TGI in test [1], in [2], in test [3], in test [4], in test [5] and in test [6] was greater than 100 µM in each case. The TGI in test [7], in test [8], in [9], in [10], in test [11] and in test [12] was greater than 100 µM each time. The TGI in test [13], in test [14], in test [15], in test [16], in test [17] and in [18] was greater than 100 µM throughout.
Take `C[N+]1(C)CCOC(O)(c2ccccc2)C1` (configuration not stated): the TGI in test [1], in [2], in [3], in test [4], in [5] and in test [6] was greater than 100 µM in each case. Further, the TGI in test [7], in test [8], in [9], in test [10], in [11] and in [12] was greater than 100 µM in each case. Further, the TGI in test [13], in test [14], in [15], in test [16], in test [17] and in test [18] was greater than 100 µM in each case.
`O=c1oc2ccccc2cc1-c1csc(Nc2cc(Cl)cc(Cl)c2)n1`: the TGI in test [1] was 36 µM; in test [2], 59 µM; in [3], greater than 100 µM; in test [4], greater than 100 µM; in test [5], greater than 100 µM; in test [6] it was greater than 100 µM. The TGI is greater than 100 µM in test [7]; 5.16 µM in test [8]; greater than 32.4 µM in test [9]; 14.2 µM in test [10]; greater than 49.5 µM in test [11]; 16.9 µM in [12]. The TGI in [13] is 12.9 µM; in [14] it was greater than 100 µM; in test [15], greater than 44.8 µM; in test [16], greater than 100 µM; in test [17], 7.53 µM; in test [18], 64.8 µM.
For `N#C/C(=C\c1ccc(F)cc1)c1nc2ccccc2c(=O)[nH]1`, the TGI in [1], in test [2], in [3], in test [4], in [5] and in test [6] was greater than 100 µM in each case. Also, the TGI in [7], in test [8], in test [9], in test [10], in [11] and in test [12] was greater than 100 µM throughout. For the same compound, the TGI in test [13], in test [14], in test [15], in [16], in test [17] and in [18] was greater than 100 µM in each case.
Regarding `CC(C)(Cl)C(Br)CCC(CBr)=C(Cl)CCl` (mixture of isomers), the TGI in [1] is 2.2 µM; in [2], 4.41 µM; in [3], greater than 10 µM; in test [4], 5.15 µM; in test [5] it was greater than 10 µM; in test [6] it was 2.55 µM. The TGI in test [7] was 4.39 µM; in test [8], 4.07 µM; in test [9], 5.67 µM; in test [10], 3.77 µM; in [11], greater than 8.72 µM; in test [12], greater than 10 µM. The TGI in test [13] stood at 3.04 µM; in test [14], 4.89 µM; in [15], 0.971 µM; in test [16], 3.71 µM; in test [17] it was 3.96 µM; in test [18], 4.13 µM.
As for `Cc1nc2c(=O)n(C)c(=O)nc-2n(CCO)c1C`, the TGI in [1], in [2], in test [3], in test [4], in test [5] and in test [6] was greater than 100 µM each time. Besides, the TGI in test [7], in test [8], in test [9], in test [10], in test [11] and in test [12] was greater than 100 µM each time. Also, the TGI in [13], in test [14], in test [15], in test [16], in [17] and in test [18] was greater than 100 µM in each case.
Take `COc1ccc(C2C3=C(COC3=O)OC(C)(C)Oc3cc4c(cc32)OCO4)cc1` (configuration not stated): the TGI was greater than 100 µM in [1]; greater than 100 µM in [2]; greater than 92.6 µM in [3]; greater than 100 µM in [4]; greater than 100 µM in test [5]; greater than 100 µM in test [6]. For the same compound, the TGI in test [7] is greater than 100 µM; in test [8], greater than 72.7 µM; in test [9] it was greater than 86.9 µM; in [10], greater than 100 µM; in test [11], greater than 100 µM; in test [12], greater than 100 µM. In addition, the TGI in test [13] was greater than 100 µM; in test [14] it was greater than 100 µM; in test [15] it was greater than 100 µM; in test [16], greater than 66.6 µM; in test [17] it was 98.7 µM; in [18] it was greater than 100 µM.
For the compound `O=S(=O)(O)c1cc(N=Nc2cc(S(=O)(=O)O)c3ccccc3c2O)ccc1/C=C/c1ccc(N=Nc2cc(S(=O)(=O)O)c3ccccc3c2O)cc1S(=O)(=O)O`, the TGI in test [1] is greater than 873 µM; in [2], greater than 1000 µM; in [3], greater than 881 µM; in [4], greater than 727 µM; in [5] it was 712 µM; in test [6], 70.6 µM. Besides, the TGI in test [7] is greater than 311 µM; in [8], greater than 667 µM; in test [9], greater than 756 µM; in [10] it was greater than 740 µM; in [11], greater than 876 µM; in test [12] it was greater than 1000 µM. In addition, the TGI in test [13] is greater than 1000 µM; in test [14], greater than 1000 µM; in test [15] it was greater than 1000 µM; in test [16], greater than 628 µM; in test [17], greater than 527 µM; in test [18], greater than 494 µM. The GI50 in test [4] is 186 µM; in test [6], 32.8 µM.
With `CCN=C=NCCCN(C)C`, the TGI in [1], in test [2], in test [3], in [4], in test [5] and in test [6] was greater than 100 µM each time. Besides, the TGI in [7], in test [8], in test [9], in test [10], in test [11] and in test [12] was greater than 100 µM each time. For the same compound, the TGI in [13], in [14], in [15], in [16], in [17] and in test [18] was greater than 100 µM each time.
On to `O=C1N[C@H]2C(=O)c3c(Cl)sc(Cl)c3[C@H]2O1`, for which the TGI was found to be 10.6 µM in test [1]; 23.2 µM in test [2]; 39.4 µM in test [3]; 16.6 µM in test [4]; 23.7 µM in test [5]; 6.71 µM in [6]. Moreover, the TGI in [7] came out at 59.1 µM; in test [8], 20.6 µM; in [9], 9.7 µM; in [10], 6.23 µM; in [11], 28.9 µM; in test [12], 40 µM. The TGI in [13] was 31.3 µM; in test [14], 23 µM; in [15] it was 30.3 µM; in [16] it was 28.2 µM; in [17], 3.24 µM; in [18] it was 33 µM.
As to `N#Cc1nc(Sc2cnsn2)c(Sc2cnsn2)nc1C#N`, the TGI in test [1] was 37.3 µM; in test [2], 53.6 µM; in test [3] it was greater than 60.9 µM; in test [4], 13.1 µM; in test [5], 35.5 µM; in test [6], greater than 100 µM. The TGI in test [7] was greater than 100 µM; in test [8] it was 41.4 µM; in test [9], 12.5 µM; in [10] it was 47.6 µM; in [11], 32.1 µM; in [12] it was greater than 77.4 µM. For the same compound, the TGI in test [13] turned out to be 33.6 µM; in test [14], 39 µM; in test [15] it was 56.3 µM; in test [16], 32.5 µM; in test [17] it was 65.6 µM; in [18], 33.3 µM.
`COc1cc(/C=C/C=C2\CCC/C(=C\C=C\c3ccc(O)c(OC)c3)C2=O)ccc1O`: the TGI in [1] is 74.7 µM; in [2], 30.2 µM; in [3] it was 57.7 µM; in [4], 43.7 µM; in test [5] it was greater than 100 µM; in test [6], 19.7 µM. Besides, the TGI in test [7] is 28.5 µM; in test [8], 45.9 µM; in test [9], 34.2 µM; in [10], 31.1 µM; in test [11], greater than 100 µM; in test [12], 26.8 µM. Moreover, the TGI in [13] was 63.5 µM; in test [14], 31.4 µM; in [15] it was 65.8 µM; in test [16] it was 31.6 µM; in [17] it was 39.5 µM; in test [18], 44.8 µM.
Take `c1cc2[nH]snc2c2cncc12`: the TGI in test [1], in test [2], in test [3], in test [4], in [5] and in [6] was greater than 100 µM in each case. For the same compound, the TGI in [7], in [8], in test [9], in test [10], in test [11] and in test [12] was greater than 100 µM in each case. The TGI in test [13], in [14], in test [15], in test [16], in test [17] and in test [18] was greater than 100 µM in each case.
For the compound `N#CC(c1ccccc1)N(CCc1ccccc1)C(=O)c1ccccc1` (configuration not stated), the TGI in [1], in test [2], in test [3], in [4], in test [5] and in test [6] was greater than 100 µM throughout. Besides, the TGI was greater than 100 µM in test [7]; greater than 84.7 µM in [8]; greater than 100 µM in test [9]; greater than 100 µM in test [10]; greater than 100 µM in [11]; greater than 100 µM in test [12]. In addition, the TGI is greater than 91.4 µM in test [13]; greater than 100 µM in test [14]; greater than 100 µM in test [15]; greater than 100 µM in test [16]; greater than 100 µM in test [17]; greater than 100 µM in test [18].
